Test results reported in patent publication US11185100B2 (priority 2014, dated 2021).
Values joined by “and” are separate entries in the source; they are usually repeats but may differ in a detail not shown here. Equal entries are not always repeated. Structures can show the parent of a compound that is named as a salt.

What was measured:
[1] = biological target: T1, T1R1/T1R3 receptor (Felis catus, UniProt E3UMS2); test: PAM screening of transmembrane compounds with GMP and Ala on T1R1/T1R3 in HEK293 cells (Example 8); format: cell-based, cat; details: for T1R1/T1R3 PAM: transmembrane compound at 0.01, 0.1 and 1 mM with GMP + Ala mixtures (T1-T4), PAM if response greater than sum of compound alone and GMP+Ala alone
From the text: PAM Screening Method: HEK293 cells that stably express T1R3 and inducibly express T1R1 were exposed to transmembrane compound alone or in combination with Ala and GMP to activate the umami receptor. Activation of the T1R1/T1R3 receptor was detected by a change in intracellular calcium levels using a calcium sensitive fluorescent dye and/or a luminescent reporter system. […] A FLIPR® Tetra or a FlexStation® 3 was used for data capture.
Dose response curves were generated for each transmembrane compound at concentrations of 0 (buffer only), 0.01, 0.1 and 1 mM, wherein each of the three concentrations of transmembrane compound was tested in combination with 0.03 mM GMP+100 mM Ala (T1); 0.6 mM GMP+10 mM Ala (T2); 0.1 mM GMP+60 mM Ala (T3) and 0.3 mM GMP+60 mM Ala (T4). The T4 mixture was also tested in a 2-fold dilution series (the T4(X) Concentration). In these experiments, the first test concentration was 2× (2 times) the T4 concentration. The subsequent test concentrations were 2-fold dilutions from that (1×, 0.5× etc.). This dilution series was tested with or without the addition of the test compound at a constant 0.3 mM concentration.
Activation of the umami receptor was also determined in the presence of 1 mM GMP+100 mM Ala to generate a “maximum” umami receptor activation level.

[2] = biological target: T1, T1R1/T1R3 receptor; test: Activation of T1R1/T1R3 receptor by transmembrane compounds and nucleotide derivatives, conducted as in Examples 1, 2 and 5 (Example 7); format: cell-based, cat
Procedure, shortened: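 HEK293 cells stably expressing feline T1R3 with inducible T1R1 were given serial dilutions of transmembrane compound up to 10 mM, alone or with amino acids and/or nucleotides. Activation was read as an intracellular calcium change by fluorescent dye on FLIPR Tetra or FlexStation 3. T1R3-only cells served as control.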

[3] = biological target: T1, T1R1/T1R3 receptor; test: Agonist screening of transmembrane compounds on T1R1/T1R3 in HEK293 cells (Example 8); format: cell-based, cat; details: for T1R1/T1R3 agonist: transmembrane compound tested at 0.01, 0.1 and 1 mM, HEK293 cells expressing T1R1/T1R3, calcium readout
Protocol: Agonist Screening Method: HEK293 cells that stably express T1R3 and inducibly express T1R1 were exposed to a transmembrane compound. Activation of the T1R1/T1R3 receptor was detected by a change in intracellular calcium levels using a calcium sensitive fluorescent dye and/or a luminescent reporter system. […] A FLIPR® Tetra or a FlexStation® 3 was used for data capture.
Each transmembrane compound was tested at concentrations of 0.01 mM, 0.1 mM, and 1 mM. […] To generate the dose response curves, the transmembrane compound was tested at concentrations of between 0.0001 mM and 1.0 mM in the presence of GMP and Ala.

[4] = biological target: T2, cat T1R1/T1R3 receptor (Felis catus, UniProt E3UMS2); test: Activation of cat T1R1/T1R3 receptor by nucleotide derivatives alone, with alanine and/or IMP; HEK293 cells, intracellular calcium fluorescence (Example 1); format: cell-based
From the text: […] Activation of the T1R1/T1R3 receptor was detected by a change in intracellular calcium levels using a calcium sensitive fluorescent dye. Cells that express T1R3 but not T1R1 were used as a control. A FLIPR® Tetra or a FlexStation® 3 was used for data capture.
The term half maximal effective concentration (EC50) refers to the concentration of a compound which induces a response halfway between the baseline and the maximum after a specified exposure time. In each experiment, serial dilutions of up to 0.1 mM, 1 mM or 10 mM of the nucleotide derivative were added to the T1R1/T1R3-expressing cells.

[5] = biological target: T2, cat T1R1/T1R3 receptor; test: cell-based; format: cell-based
Procedure, shortened: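 Umami receptor activation in HEK293 cells stably expressing T1R3 with inducible T1R1, exposed to nucleotide derivatives alone or combined with amino acids and/or nucleotides. Intracellular calcium read with a calcium-sensitive fluorescent dye and/or luminescent reporter; cells expressing T1R3 without T1R1 served as control.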

[6] = biological target: T1, T1R1/T1R3 receptor; test: Activation of T1R1/T1R3 receptor by transmembrane compounds alone or with alanine, IMP, GMP, phenylalanine; HEK293 cells, calcium fluorescence (Example 5); format: cell-based, cat
Procedure, shortened: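 HEK293 cells stably expressing feline T1R3 with inducible T1R1 treated with serial dilutions (up to 10 mM) of transmembrane compounds, alone or combined with amino acids and/or nucleotides. Activation read as intracellular calcium change via calcium-sensitive fluorescent dye; T1R3-only cells served as control.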

[7] = EC50- with IMP (mM), with 0.2 mM IMP
[8] = compound alone in buffer, read-out: EC50- alone
[9] = with 20 mM alanine, read-out: EC50- with Ala

## COC(=O)[C@H](Cc1ccccc1)NCc1ccccc1 [N-Benzyl-L-phenylalanine methyl ester]
[1]
  PAM profile assessment (activation of T1R1/T1R3 in the presence of GMP and Alanine): PAM activity
[2]
  Max resp ΔF/F +Alanine (20 mM): 1.8725 ΔF/F
  Thres +Alanine (20 mM): 0.01 mM
[2]; +IMP (0.2 mM)
  Max resp % of Ala +IMP (0.2 mM): 289.4 % of Ala
  Max resp ΔF/F +IMP (0.2 mM): 2.2500 ΔF/F
  Thres +IMP (0.2 mM): 0.003 mM
[2]; hek293 cells
  Max resp % of IMP +Alanine (20 mM): 273.4 % of IMP
[2]; modulation of T1R1/T1R3
  Activity: active
[3]
  agonist profile assessment (activation of T1R1/T1R3 by the compound alone): agonist

## Nc1ncnc2c1ncn2C1OC(COP(=O)(O)O)C(OP(=O)(O)O)C1O (stereo not drawn) [listing 1 of 2 here]
[4]; [7]
  EC50: > 0.01 mM
[4]; [8]
  EC50: > 0.01 mM
[4]; [9]
  EC50: > 0.01 mM

## COC(=O)[C@H](Cc1ccccc1)NCc1ccccc1 [Formula 15, N-Benzyl-L-phenylalanine methyl ester hydrochloride]
[1]
  T1R1/T1R3 PAM: Yes
[3]
  T1R1/T1R3 agonist: Yes

## Cl.N[C@@H](Cc1ccccc1)C(=O)OCc1ccccc1 [L-Phenylalanine benzyl ester hydrochloride]
[1]
  PAM profile assessment (activation of T1R1/T1R3 in the presence of GMP and Alanine): PAM activity
[3]
  agonist profile assessment (activation of T1R1/T1R3 by the compound alone): agonist

## COC(=O)C(NCc1ccccc1)c1ccccc1 (stereo not drawn) [Methyl-2-benzylamino-2-phenylacetate]
[1]
  PAM profile assessment (activation of T1R1/T1R3 in the presence of GMP and Alanine): PAM activity
[3]
  agonist profile assessment (activation of T1R1/T1R3 by the compound alone): agonist

## N[C@@H](Cc1ccc(O)cc1)C(=O)OCc1ccccc1 [Formula 21, L-Tyrosine benzyl ester]
[1]
  T1R1/T1R3 PAM: No
[3]
  T1R1/T1R3 agonist: No

## COC(=O)[C@@H](Cc1ccccc1)NCc1ccccc1.Cl [N-Benzyl-D-Phenylalanine methyl ester hydrochloride]
[1]
  PAM profile assessment (activation of T1R1/T1R3 in the presence of GMP and Alanine): PAM activity
[3]
  agonist profile assessment (activation of T1R1/T1R3 by the compound alone): agonist

## COc1ccc(C(=O)CN2C(=O)C(=O)N(Cc3ccccc3)C2=O)c(OC)c1 [Formula 5, 1-benzyl-3-(2-(2,4-dimethoxyphenyl)-2-oxoethyl)imidazolidine-2,4,5-trione]
[1]
  T1R1/T1R3 PAM: No
[3]
  T1R1/T1R3 agonist: No

## O=C(CN1C(=O)C(=O)N(Cc2ccccc2)C1=O)c1ccc2c(c1)OCCO2 [Formula 4, 1-benzyl-3-(2-(2,3-dihydrobenzo[b][1,4]dioxin-6-yl)-2-oxoethyl)imidazolidine-2,4,5-trione]
[1]
  T1R1/T1R3 PAM: No
[3]
  T1R1/T1R3 agonist: No

## O=c1nc[nH]c2c1ncn2C1O[C@H](COP(=O)(O)OP(=O)(O)OP(=O)(O)O)[C@@H](O)[C@H]1O (stereo partly drawn) [inosine triphosphate (ITP) trisodium salt]
[5]
  Activity: active
[5]; hek293 cells
  Max. resp. % of IMP: 25.1 % of IMP
[5]; in the presence of 20 mM alanine, read-out: EC50- with Ala
  EC50: 80 µM
[4]; EC50- with Ala and IMP (mM), with 20 mM alanine and 0.2 mM IMP
  EC50: 0.03 ± 0.01 mM
[4]; [7]
  EC50: 0.02 ± 0.03 mM
[4]; [8]
  EC50: 0.05 ± 0.03 mM

## COc1ccccc1C(=O)CN1C(=O)C(=O)N(Cc2cccs2)C1=O [Formula 10, 1-(2-(2-methoxyphenyl)-2-oxoethyl)-3-(thiophen-2-ylmethyl)imidazolidine-2,4,5-trione]
[1]
  T1R1/T1R3 PAM: No
[3]
  T1R1/T1R3 agonist: No

## O=C(CN1C(=O)C(=O)N(Cc2ccccc2)C1=O)c1ccccc1 [Formula 1, 1-benzyl-3-(2-oxo-2-phenylethyl)imidazolidine-2,4,5-trione]
[1]
  T1R1/T1R3 PAM: No
[3]
  T1R1/T1R3 agonist: No

## O=C(CN1C(=O)C(=O)N(Cc2ccccc2)C1=O)c1ccc2c(c1)OCCCO2 [Formula 8, 1-benzyl-3-(2-(3,4-dihydro-2H-benzo[b][1,4]dioxepin-7-yl)-2-oxoethyl)imidazolidine-2,4,5-trione]
[1]
  T1R1/T1R3 PAM: Weak PAM
[3]
  T1R1/T1R3 agonist: No

## Cl.N[C@@H](Cc1ccccc1)C(=O)OCc1ccccc1 [Formula 20, L-Phenylalanine benzyl ester hydrochloride]
[1]
  T1R1/T1R3 PAM: Yes
[3]
  T1R1/T1R3 agonist: Yes

## Nc1ncnc2c1ncn2C1OC(COP(=O)(O)O)C(OP(=O)(O)O)C1O (stereo not drawn) [listing 2 of 2 here]
[4]; [8]
  EC50: > 0.03 mM
[4]; [9]
  EC50: 0.003 ± 0.0003 mM

## C[C@H](N)C(=O)O [alanine, reference compound]
[4]; [8]
  EC50: 13.6 mM

## O=C(CN1C(=O)C(=O)N(Cc2ccccc2)C1=O)c1ccc(Br)cc1 [Formula 3, 1-benzyl-3-(2-(4-bromophenyl)-2-oxoethyl)imidazolidine-2,4,5-trione]
[1]
  T1R1/T1R3 PAM: No
[3]
  T1R1/T1R3 agonist: No

## CCCC(CCC)NC(=O)c1ccc2c(c1)OCO2 [N-(heptan-4-yl)benzo[d][1,3]dioxole-5-carboxamide]
[1]
  PAM profile assessment (activation of T1R1/T1R3 in the presence of GMP and Alanine): PAM activity
[3]
  agonist profile assessment (activation of T1R1/T1R3 by the compound alone): agonist
[6]; +Alanine (20 mM)
  +Alanine (20 mM) Max resp % of IMP: 142.7 % of IMP and 118.2 % of IMP
  +Alanine (20 mM) Max resp ΔF/F: 1.7725 ΔF/F and 1.2 ΔF/F
[6]; +Alanine (20 mM), relative to IMP
  Max resp % of IMP +Alanine (20 mM): 118.2% and 142.7%
[6]; +IMP (0.2 mM)
  +IMP (0.2 mM) Max resp % of Ala: 119.6 % of Ala and 165.8 % of Ala
  +IMP (0.2 mM) Max resp ΔF/F: 1.4725 ΔF/F
  Max resp ΔF/F +IMP (0.2 mM): 1.393 ΔF/F and 1.473 ΔF/F
[6]; +IMP (0.2 mM), relative to Ala
  Max resp % of Ala +IMP (0.2 mM): 165.8% and 119.6%
[6]; Table 18, all transmembrane compounds tested, active / N/A (not active)
  Activity: active
[6]; with phenylalanine and GMP
  ΔF/F0 of ternary mixture with phenylalanine and GMP compared to phenylalanine and GMP without the agonist: approximately 10 ×

## O=C(CN1C(=O)C(=O)N(CCc2cccs2)C1=O)c1ccccc1 [Formula 6, 1-(2-oxo-2-phenylethyl)-3-(2-(thiophen-2-yl)ethyl)imidazolidine-2,4,5-trione]
[1]
  T1R1/T1R3 PAM: No
[3]
  T1R1/T1R3 agonist: No

## O=C(CN1C(=O)C(=O)N(Cc2ccccc2)C1=O)c1ccc(Cl)s1 [Formula 12, 1-benzyl-3-(2-(5-chlorothiophen-2-yl)-2-oxoethyl)imidazolidine-2,4,5-trione]
[1]
  T1R1/T1R3 PAM: Weak PAM
[3]
  T1R1/T1R3 agonist: No
